According to ChEMBL document CHEMBL5385944, “Hydrazyl hydroxycoumarins as new potential conquerors towards Pseudomonas aeruginosa” (Bioorg Med Chem Lett, 2024):
Converted amounts (≈) assume the structure as drawn.

How the values were obtained:
Assay type in all cases: functional
Escherichia coli = assay: Antibacterial activity against Escherichia coli ATCC 25922 assessed as reduction in bacterial growth by CLSI protocol based method
Pseudomonas aeruginosa [1] = assay: Antibacterial activity against Pseudomonas aeruginosa ATCC 27853 assessed as reduction in bacterial growth by CLSI protocol based method
Pseudomonas aeruginosa [2] = assay: Antibacterial activity against Pseudomonas aeruginosa assessed as reduction in bacterial growth by CLSI protocol based method
Staphylococcus aureus [3] = assay: Antibacterial activity against Staphylococcus aureus ATCC 29213 assessed as reduction in bacterial growth by CLSI protocol based method
Acinetobacter baumannii = assay: Antibacterial activity against Acinetobacter baumannii assessed as reduction in bacterial growth by CLSI protocol based method
Staphylococcus aureus [4] = assay: Antibacterial activity against Staphylococcus aureus ATCC 25923 assessed as reduction in bacterial growth by CLSI protocol based method
Staphylococcus aureus [5] = assay: Antibacterial activity against methicillin resistant Staphylococcus aureus assessed as reduction in bacterial growth by CLSI protocol based method
Pseudomonas aeruginosa [6] = assay: Antibacterial activity against Pseudomonas aeruginosa ATCC 10104 assessed as reduction in bacterial growth by CLSI protocol based method
Klebsiella pneumoniae = assay: Antibacterial activity against Klebsiella pneumoniae assessed as reduction in bacterial growth by CLSI protocol based method
Staphylococcus aureus [7] = assay: Antibacterial activity against methicillin resistant Staphylococcus aureus 43300 assessed as reduction in bacterial growth by CLSI protocol based method
Pseudomonas aeruginosa [8] = assay: Antibacterial activity against Pseudomonas aeruginosa ATCC 90027 assessed as reduction in bacterial growth by CLSI protocol based method
Enterococcus faecalis = assay: Antibacterial activity against Enterococcus faecalis assessed as reduction in bacterial growth by CLSI protocol based method
[9] = Induction of drug resistance in Pseudomonas aeruginosa ATCC 27853 measured after 12 passages

Compound | MIC (Escherichia coli) [µg/mL] | MIC (Pseudomonas aeruginosa [1]) [µg/mL] | MIC (Pseudomonas aeruginosa [2]) [µg/mL] | MIC (Staphylococcus aureus [3]) [µg/mL] | MIC (Acinetobacter baumannii) [µg/mL] | MIC (Staphylococcus aureus [4]) [µg/mL] | MIC (Staphylococcus aureus [5]) [µg/mL] | MIC (Pseudomonas aeruginosa [6]) [µg/mL] | MIC (Klebsiella pneumoniae) [µg/mL] | MIC (Staphylococcus aureus [7]) [µg/mL] | MIC (Pseudomonas aeruginosa [8]) [µg/mL] | MIC (Enterococcus faecalis) [µg/mL] | MIC [9] [µg/mL]
Cc1ncc([N+](=O)[O-])n1CC(=O)N/N=C/c1c(O)ccc2ccc(=O)oc12 | 256 (≈ 689 µM) | 8 (≈ 21.5 µM) | 256 (≈ 689 µM) | 256 (≈ 689 µM) | 256 (≈ 689 µM) | 4 (≈ 10.8 µM) | 256 (≈ 689 µM) | 64 (≈ 172 µM) | 256 (≈ 689 µM) | 128 (≈ 345 µM) | 32 (≈ 86.2 µM) | 32 (≈ 86.2 µM) | –
O=c1ccc2ccc(O)c(/C=N/NS(=O)(=O)c3cccc4c3OCC4)c2o1 | 512 (≈ 1330 µM) | 512 (≈ 1330 µM) | 512 (≈ 1330 µM) | 512 (≈ 1330 µM) | 512 (≈ 1330 µM) | 512 (≈ 1330 µM) | 512 (≈ 1330 µM) | 512 (≈ 1330 µM) | 512 (≈ 1330 µM) | 512 (≈ 1330 µM) | 512 (≈ 1330 µM) | 512 (≈ 1330 µM) | –
O=C(N/N=C/c1c(O)ccc2ccc(=O)oc12)c1ccc(Cl)cc1 | 256 (≈ 747 µM) | 256 (≈ 747 µM) | 256 (≈ 747 µM) | 256 (≈ 747 µM) | 256 (≈ 747 µM) | 256 (≈ 747 µM) | 512 (≈ 1490 µM) | 32 (≈ 93.4 µM) | 256 (≈ 747 µM) | 512 (≈ 1490 µM) | 256 (≈ 747 µM) | 256 (≈ 747 µM) | –
Cc1ccc(S(=O)(=O)N/N=C/c2c(O)ccc3ccc(=O)oc23)cc1 | 256 (≈ 714 µM) | 512 (≈ 1430 µM) | 512 (≈ 1430 µM) | 256 (≈ 714 µM) | 512 (≈ 1430 µM) | 512 (≈ 1430 µM) | 512 (≈ 1430 µM) | 512 (≈ 1430 µM) | 512 (≈ 1430 µM) | 512 (≈ 1430 µM) | 512 (≈ 1430 µM) | 512 (≈ 1430 µM) | –
CC(=O)Nc1ccc(S(=O)(=O)N/N=C/c2c(O)ccc3ccc(=O)oc23)cc1 | 256 (≈ 638 µM) | 512 (≈ 1280 µM) | 512 (≈ 1280 µM) | 512 (≈ 1280 µM) | 128 (≈ 319 µM) | 512 (≈ 1280 µM) | 512 (≈ 1280 µM) | 512 (≈ 1280 µM) | 512 (≈ 1280 µM) | 512 (≈ 1280 µM) | 64 (≈ 159 µM) | 512 (≈ 1280 µM) | –
O=c1ccc2ccc(O)c(/C=N/Nc3ccc(S(=O)(=O)Nc4nccs4)cc3)c2o1 | 512 (≈ 1160 µM) | 256 (≈ 579 µM) | 256 (≈ 579 µM) | 256 (≈ 579 µM) | 256 (≈ 579 µM) | 256 (≈ 579 µM) | 512 (≈ 1160 µM) | 512 (≈ 1160 µM) | 512 (≈ 1160 µM) | 512 (≈ 1160 µM) | 256 (≈ 579 µM) | 512 (≈ 1160 µM) | –
N=C(N)N/N=C/c1c(O)ccc2ccc(=O)oc12 | 256 (≈ 1040 µM) | 256 (≈ 1040 µM) | 4 (≈ 16.2 µM) | 64 (≈ 260 µM) | 256 (≈ 1040 µM) | 512 (≈ 2080 µM) | 512 (≈ 2080 µM) | 512 (≈ 2080 µM) | 512 (≈ 2080 µM) | 256 (≈ 1040 µM) | 4 (≈ 16.2 µM) | 32 (≈ 130 µM) | –
O=c1ccc2ccc(O)c(/C=N/NS(=O)(=O)Cc3ccccc3)c2o1 | 256 (≈ 714 µM) | 512 (≈ 1430 µM) | 512 (≈ 1430 µM) | 16 (≈ 44.6 µM) | 512 (≈ 1430 µM) | 38 (≈ 106 µM) | 256 (≈ 714 µM) | 512 (≈ 1430 µM) | 512 (≈ 1430 µM) | 512 (≈ 1430 µM) | 512 (≈ 1430 µM) | 128 (≈ 357 µM) | –
Cc1cc(NS(=O)(=O)c2ccc(N/N=C/c3c(O)ccc4ccc(=O)oc34)cc2)no1 | 512 (≈ 1160 µM) | 512 (≈ 1160 µM) | 512 (≈ 1160 µM) | 512 (≈ 1160 µM) | 256 (≈ 581 µM) | 256 (≈ 581 µM) | 256 (≈ 581 µM) | 256 (≈ 581 µM) | 256 (≈ 581 µM) | 512 (≈ 1160 µM) | 256 (≈ 581 µM) | 256 (≈ 581 µM) | –
Nc1ncc(C(=O)N/N=C/c2c(O)ccc3ccc(=O)oc23)s1 | 128 (≈ 387 µM) | 32 (≈ 96.9 µM) | 256 (≈ 775 µM) | 256 (≈ 775 µM) | 1 (≈ 3.03 µM) | 1 (≈ 3.03 µM) | 16 (≈ 48.4 µM) | 2 (≈ 6.05 µM) | 8 (≈ 24.2 µM) | 64 (≈ 194 µM) | 1 (≈ 3.03 µM) | 128 (≈ 387 µM) | –
O=c1ccc2ccc(O)c(/C=N/NS(=O)(=O)c3ccccc3)c2o1 | 512 (≈ 1490 µM) | 512 (≈ 1490 µM) | 512 (≈ 1490 µM) | 32 (≈ 92.9 µM) | 512 (≈ 1490 µM) | 512 (≈ 1490 µM) | 512 (≈ 1490 µM) | 512 (≈ 1490 µM) | 2 (≈ 5.81 µM) | 512 (≈ 1490 µM) | 512 (≈ 1490 µM) | 512 (≈ 1490 µM) | –
O=C(N/N=C/c1c(O)ccc2ccc(=O)oc12)c1ccc(F)cc1 | 256 (≈ 785 µM) | 512 (≈ 1570 µM) | 512 (≈ 1570 µM) | 512 (≈ 1570 µM) | 256 (≈ 785 µM) | 256 (≈ 785 µM) | 512 (≈ 1570 µM) | 128 (≈ 392 µM) | 256 (≈ 785 µM) | 16 (≈ 49 µM) | 512 (≈ 1570 µM) | 512 (≈ 1570 µM) | –
O=c1ccc2ccc(O)c(/C=N/NS(=O)(=O)c3cccc4ccccc34)c2o1 | 256 (≈ 649 µM) | 256 (≈ 649 µM) | 64 (≈ 162 µM) | 512 (≈ 1300 µM) | 256 (≈ 649 µM) | 512 (≈ 1300 µM) | 256 (≈ 649 µM) | 128 (≈ 325 µM) | 512 (≈ 1300 µM) | 16 (≈ 40.6 µM) | 256 (≈ 649 µM) | 512 (≈ 1300 µM) | –
Nc1ccc(C(=O)N/N=C/c2c(O)ccc3ccc(=O)oc23)cc1 | 512 (≈ 1580 µM) | 512 (≈ 1580 µM) | 512 (≈ 1580 µM) | 512 (≈ 1580 µM) | 256 (≈ 792 µM) | 512 (≈ 1580 µM) | 512 (≈ 1580 µM) | 512 (≈ 1580 µM) | 256 (≈ 792 µM) | 512 (≈ 1580 µM) | – | 32 (≈ 99 µM) | –
O=C(N/N=C/c1c(O)ccc2ccc(=O)oc12)c1ccc([N+](=O)[O-])cc1 | 4 (≈ 11.3 µM) | 512 (≈ 1450 µM) | 512 (≈ 1450 µM) | 512 (≈ 1450 µM) | 512 (≈ 1450 µM) | 512 (≈ 1450 µM) | 512 (≈ 1450 µM) | 512 (≈ 1450 µM) | 512 (≈ 1450 µM) | 512 (≈ 1450 µM) | 512 (≈ 1450 µM) | 512 (≈ 1450 µM) | –
O=C(N/N=C/c1c(O)ccc2ccc(=O)oc12)c1ccc(O)cc1 | 512 (≈ 1580 µM) | 512 (≈ 1580 µM) | 512 (≈ 1580 µM) | 512 (≈ 1580 µM) | 512 (≈ 1580 µM) | 512 (≈ 1580 µM) | 512 (≈ 1580 µM) | 512 (≈ 1580 µM) | 256 (≈ 789 µM) | 512 (≈ 1580 µM) | 512 (≈ 1580 µM) | 512 (≈ 1580 µM) | –
O=C(N/N=C/c1c(O)ccc2ccc(=O)oc12)c1ccccc1 | 2 (≈ 6.49 µM) | 256 (≈ 830 µM) | 16 (≈ 51.9 µM) | 512 (≈ 1660 µM) | 512 (≈ 1660 µM) | 2 (≈ 6.49 µM) | 256 (≈ 830 µM) | 1 (≈ 3.24 µM) | 32 (≈ 104 µM) | 512 (≈ 1660 µM) | 32 (≈ 104 µM) | 128 (≈ 415 µM) | –
COC(=O)N/N=C/c1c(O)ccc2ccc(=O)oc12 | 1 (≈ 3.81 µM) | 256 (≈ 976 µM) | 32 (≈ 122 µM) | 512 (≈ 1950 µM) | 128 (≈ 488 µM) | 64 (≈ 244 µM) | 512 (≈ 1950 µM) | 512 (≈ 1950 µM) | 128 (≈ 488 µM) | 512 (≈ 1950 µM) | 128 (≈ 488 µM) | 256 (≈ 976 µM) | –
CCn1cc(C(=O)O)c(=O)c2cc(F)c(N3CCNCC3)cc21 [NORFLOXACIN] | 4 (≈ 12.5 µM) | 4 (≈ 12.5 µM) | 4 (≈ 12.5 µM) | 2 (≈ 6.26 µM) | 2 (≈ 6.26 µM) | 2 (≈ 6.26 µM) | 4 (≈ 12.5 µM) | 5 (≈ 15.7 µM) | 4 (≈ 12.5 µM) | 8 (≈ 25.1 µM) | 2 (≈ 6.26 µM) | 4 (≈ 12.5 µM) | 128 (≈ 401 µM)
N/N=C/c1c(O)ccc2ccc(=O)oc12 | 32 (≈ 157 µM) | 128 (≈ 627 µM) | 512 (≈ 2510 µM) | 512 (≈ 2510 µM) | 256 (≈ 1250 µM) | 16 (≈ 78.4 µM) | 128 (≈ 627 µM) | 512 (≈ 2510 µM) | 128 (≈ 627 µM) | 128 (≈ 627 µM) | 512 (≈ 2510 µM) | 512 (≈ 2510 µM) | –
O=c1ccc2ccc(O)c(/C=N/NS(=O)(=O)c3ccc(Cl)cc3)c2o1 | 256 (≈ 676 µM) | 512 (≈ 1350 µM) | 256 (≈ 676 µM) | 4 (≈ 10.6 µM) | 512 (≈ 1350 µM) | 512 (≈ 1350 µM) | 512 (≈ 1350 µM) | 512 (≈ 1350 µM) | 256 (≈ 676 µM) | 512 (≈ 1350 µM) | 512 (≈ 1350 µM) | 512 (≈ 1350 µM) | –
